The text below walks through data of article PMC4166403 (Cell, 2014).

In series [1] the target is T1, pyruvate carboxylase (LmPC) (Listeria monocytogenes, UniProt Q8Y846).
T1 sequence (Q8Y846 1-1146): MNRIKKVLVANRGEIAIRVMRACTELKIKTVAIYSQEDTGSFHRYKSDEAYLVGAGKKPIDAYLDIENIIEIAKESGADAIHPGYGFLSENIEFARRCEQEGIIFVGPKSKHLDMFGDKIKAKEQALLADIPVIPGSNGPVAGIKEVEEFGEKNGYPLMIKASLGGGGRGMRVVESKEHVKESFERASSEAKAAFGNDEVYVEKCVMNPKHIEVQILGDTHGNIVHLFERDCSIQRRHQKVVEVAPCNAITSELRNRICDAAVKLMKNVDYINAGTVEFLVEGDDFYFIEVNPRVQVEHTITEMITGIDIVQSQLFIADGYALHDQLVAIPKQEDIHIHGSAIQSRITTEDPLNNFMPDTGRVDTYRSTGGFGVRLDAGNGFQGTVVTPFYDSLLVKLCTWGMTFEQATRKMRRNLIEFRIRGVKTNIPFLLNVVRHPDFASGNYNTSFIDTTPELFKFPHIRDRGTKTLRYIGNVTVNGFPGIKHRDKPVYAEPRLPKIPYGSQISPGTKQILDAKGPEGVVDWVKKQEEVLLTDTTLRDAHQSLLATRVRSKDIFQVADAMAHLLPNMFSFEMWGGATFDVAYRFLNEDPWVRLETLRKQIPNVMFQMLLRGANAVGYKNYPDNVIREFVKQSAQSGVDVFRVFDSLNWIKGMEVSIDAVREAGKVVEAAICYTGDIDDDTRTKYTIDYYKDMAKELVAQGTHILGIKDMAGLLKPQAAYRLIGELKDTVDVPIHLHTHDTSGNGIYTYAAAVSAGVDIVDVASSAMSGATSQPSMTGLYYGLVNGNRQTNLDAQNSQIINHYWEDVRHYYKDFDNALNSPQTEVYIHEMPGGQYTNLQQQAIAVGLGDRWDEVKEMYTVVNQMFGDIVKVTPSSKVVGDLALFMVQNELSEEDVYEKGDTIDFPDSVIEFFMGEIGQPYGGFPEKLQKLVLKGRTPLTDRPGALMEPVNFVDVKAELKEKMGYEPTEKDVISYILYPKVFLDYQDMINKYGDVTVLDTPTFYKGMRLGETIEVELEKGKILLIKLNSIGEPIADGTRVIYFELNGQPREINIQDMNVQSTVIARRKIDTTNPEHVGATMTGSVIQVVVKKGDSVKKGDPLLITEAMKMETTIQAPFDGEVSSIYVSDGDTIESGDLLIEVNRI
The experiment in a line: PC activity assay with nucleotide analogues. Type of series: biochemical.

Series [2] has as its target T1, pyruvate carboxylase (LmPC). The experiment in a line: crystal structure. Type of series: binding.
Series [3] addresses pyruvate carboxylase (LmPC) (Listeria monocytogenes, UniProt Q8Y846, Y722F). The experiment in a line: binding titration and enzyme inhibition of purified mutant.
For the next series, the target named is T2, Lmo1466 (Listeria monocytogenes, UniProt Q8Y746).
T2 sequence (Q8Y746 1-718): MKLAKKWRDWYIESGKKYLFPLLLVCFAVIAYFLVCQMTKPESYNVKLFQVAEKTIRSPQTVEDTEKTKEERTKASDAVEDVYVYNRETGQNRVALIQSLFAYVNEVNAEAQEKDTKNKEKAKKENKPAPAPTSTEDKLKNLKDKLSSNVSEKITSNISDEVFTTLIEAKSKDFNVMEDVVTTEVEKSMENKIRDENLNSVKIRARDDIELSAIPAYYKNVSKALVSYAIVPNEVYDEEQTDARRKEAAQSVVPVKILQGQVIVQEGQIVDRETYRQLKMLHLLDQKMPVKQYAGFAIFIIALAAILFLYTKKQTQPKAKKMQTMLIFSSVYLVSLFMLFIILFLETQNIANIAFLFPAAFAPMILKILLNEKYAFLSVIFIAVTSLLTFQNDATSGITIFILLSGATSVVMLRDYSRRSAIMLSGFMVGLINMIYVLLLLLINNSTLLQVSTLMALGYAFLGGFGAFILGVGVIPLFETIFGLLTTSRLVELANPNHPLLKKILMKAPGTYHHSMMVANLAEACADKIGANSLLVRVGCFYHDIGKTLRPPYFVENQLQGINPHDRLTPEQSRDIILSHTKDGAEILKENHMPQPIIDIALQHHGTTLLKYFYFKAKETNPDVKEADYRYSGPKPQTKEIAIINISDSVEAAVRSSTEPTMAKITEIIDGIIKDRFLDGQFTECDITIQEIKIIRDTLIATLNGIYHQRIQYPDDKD
The experiment in a line: DRaCALA with […]-c-di-AMP in E. coli lysate expressing the protein. Type of series: cell-based.

Another series deals with T3, PdeA (Lmo0052) (Listeria monocytogenes, UniProt A0A0H3GCG4).
T3 sequence (A0A0H3GCG4 1-657): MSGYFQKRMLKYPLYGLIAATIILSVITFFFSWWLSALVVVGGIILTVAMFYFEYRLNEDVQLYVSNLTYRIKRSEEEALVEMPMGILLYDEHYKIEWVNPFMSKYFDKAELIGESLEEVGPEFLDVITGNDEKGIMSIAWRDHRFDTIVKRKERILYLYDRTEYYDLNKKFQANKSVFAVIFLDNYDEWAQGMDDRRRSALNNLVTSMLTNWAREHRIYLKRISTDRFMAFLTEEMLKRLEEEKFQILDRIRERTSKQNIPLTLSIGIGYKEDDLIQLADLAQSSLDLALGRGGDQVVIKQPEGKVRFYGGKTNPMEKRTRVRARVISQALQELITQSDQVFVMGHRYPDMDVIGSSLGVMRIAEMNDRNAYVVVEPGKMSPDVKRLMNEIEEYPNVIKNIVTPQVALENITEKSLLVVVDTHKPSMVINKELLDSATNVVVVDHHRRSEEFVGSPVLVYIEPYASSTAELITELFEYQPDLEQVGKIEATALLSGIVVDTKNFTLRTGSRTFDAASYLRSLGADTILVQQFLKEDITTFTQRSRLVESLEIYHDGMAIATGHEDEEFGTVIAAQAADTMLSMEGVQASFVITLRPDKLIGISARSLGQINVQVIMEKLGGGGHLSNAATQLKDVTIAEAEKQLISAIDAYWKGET
The experiment in a line: DRaCALA with […]-c-di-AMP, purified recombinant protein. Type of series: binding.

The series “crystal structure” deals with the molecule itself. The experiment in a line: crystal structure.

What is called Kd is the concentration at which binding is half-saturated. Higher therefore signals a looser complex. The term stoichiometry N denotes a count of units in the complex or per binding partner.

In the case of `O=c1[nH]cnc2c1ncn2[C@@H]1O[C@@H]2COP(=O)(O)O[C@H]3[C@@H](O)[C@H](n4cnc5c(=O)[nH]cnc54)O[C@@H]3COP(=O)(O)O[C@H]2[C@H]1O` [c-di-IMP], in series [1], the “PC activity assay with nucleotide analogues” value is given as “while c-di-IMP did show weak inhibitory activity”.
`Nc1ncnc2c1ncn2[C@@H]1O[C@@H]2CO[P@@](=O)(O)O[C@H]3[C@@H](O)[C@H](n4cnc5c(N)ncnc54)O[C@@H]3CO[P@@](=O)(O)O[C@H]2[C@H]1O` [cdA, c-di-AMP]: binding in series [2] was put at a Kd of 8 ± 0.2 µM. For the same molecule, in series [3], the “binding titration and enzyme inhibition of purified mutant” value is “binding to c-di-AMP was only observed for Y722F and none of the other amino acid variants”. Further, the “DRaCALA with 32P-c-di-AMP in E. coli lysate expressing the protein” value on Lmo1466 is “A significant level of binding was observed for Lmo1466 and NrdR-expressing lysates, consistent with a direct interaction with c-di-AMP”. The “DRaCALA with 32P-c-di-AMP, purified recombinant protein” value at PdeA (Lmo0052) is “as well as PdeA and LmPC exhibited binding in purified form”.

B1: Listeria monocytogenes pyruvate carboxylase (LmPC) (enzyme)
chain: MNRIKKVLVANRGEIAIRVMRACTELKIKTVAIYSQEDTGSFHRYKSDEAYLVGAGKKPIDAYLDIENIIEIAKESGADAIHPGYGFLSENIEFARRCEQEGIIFVGPKSKHLDMFGDKIKAKEQALLADIPVIPGSNGPVAGIKEVEEFGEKNGYPLMIKASLGGGGRGMRVVESKEHVKESFERASSEAKAAFGNDEVYVEKCVMNPKHIEVQILGDTHGNIVHLFERDCSIQRRHQKVVEVAPCNAITSELRNRICDAAVKLMKNVDYINAGTVEFLVEGDDFYFIEVNPRVQVEHTITEMITGIDIVQSQLFIADGYALHDQLVAIPKQEDIHIHGSAIQSRITTEDPLNNFMPDTGRVDTYRSTGGFGVRLDAGNGFQGTVVTPFYDSLLVKLCTWGMTFEQATRKMRRNLIEFRIRGVKTNIPFLLNVVRHPDFASGNYNTSFIDTTPELFKFPHIRDRGTKTLRYIGNVTVNGFPGIKHRDKPVYAEPRLPKIPYGSQISPGTKQILDAKGPEGVVDWVKKQEEVLLTDTTLRDAHQSLLATRVRSKDIFQVADAMAHLLPNMFSFEMWGGATFDVAYRFLNEDPWVRLETLRKQIPNVMFQMLLRGANAVGYKNYPDNVIREFVKQSAQSGVDVFRVFDSLNWIKGMEVSIDAVREAGKVVEAAICYTGDIDDDTRTKYTIDYYKDMAKELVAQGTHILGIKDMAGLLKPQAAYRLIGELKDTVDVPIHLHTHDTSGNGIYTYAAAVSAGVDIVDVASSAMSGATSQPSMTGLYYGLVNGNRQTNLDAQNSQIINHYWEDVRHYYKDFDNALNSPQTEVYIHEMPGGQYTNLQQQAIAVGLGDRWDEVKEMYTVVNQMFGDIVKVTPSSKVVGDLALFMVQNELSEEDVYEKGDTIDFPDSVIEFFMGEIGQPYGGFPEKLQKLVLKGRTPLTDRPGALMEPVNFVDVKAELKEKMGYEPTEKDVISYILYPKVFLDYQDMINKYGDVTVLDTPTFYKGMRLGETIEVELEKGKILLIKLNSIGEPIADGTRVIYFELNGQPREINIQDMNVQSTVIARRKIDTTNPEHVGATMTGSVIQVVVKKGDSVKKGDPLLITEAMKMETTIQAPFDGEVSSIYVSDGDTIESGDLLIEVNRI
modifications: biotin group on the BCCP domain (position not given)
For B1, the “stoichiometry N” value in “crystal structure” worked out at 4.
